Reference: US20080119452A1, “METHODS FOR ENHANCING COGNITIVE FUNCTION” (priority 2006, published 2008)
Like-named read-outs stand apart in the source and are kept apart here.

Experiments:
rats = experiment: Object recognition task (time spent on novel vs familiar object); assay type: in vivo, rat
Source text: Effect of Compounds in Object Recognition Task
Spending more time on the novel than on the familiar object indicates memory for the latter. Vehicle-treated rats spent a mean of 63% of time on the novel object. The means for all of the doses of test articles were numerically higher with values of: 70 and 78% for galantamine, 71 and 75% for a first representative compound of formula IV, and 73 and 81% for a second representative compound of formula IV.
Ennaceur A and Delacour J (1988) A new one-trial test for neurobiological studies of memory in rats. 1: Behavioral data. Behav Brain Res 31: 47-59.

mouse = conditions: sub-optimal analgesic dose, cited from earlier work

| Compound | % Time Novel Object (Mean ± SEM) (rats; 0.3 mg/kg p.o., 0.3 mg/kg) [%] | % Time Novel Object (Mean ± SEM) (rats; 0.3 mg/kg p.o., listed as galantamine, 0.3 mg/kg) [%] | % Time Novel Object (Mean ± SEM) (rats; 1.7 mg/kg p.o., 1.7 mg/kg) [%] | % Time Novel Object (Mean ± SEM) (rats; 1.7 mg/kg p.o., listed as galantamine, 1.7 mg/kg) [%] | effect on memory consolidation (mouse; 3 nmol/mouse i.c.v.) | effect on memory consolidation (mouse; 100 mg/kg oral administration) |
| --- | --- | --- | --- | --- | --- | --- |
| COc1ccc2c3c1O[C@H]1C[C@@H](O)C=C[C@@]31CCN(C)C2 [Galantamine, galantamine] | 70 ± 6 | 70 | 78 ± 5 | 78 | – | – |
| rubiscolin-6 | – | – | – | – | enhance memory consolidation | enhance memory consolidation |
